Values joined by “and” are separate entries in the source; they are usually repeats but may differ in a detail not shown here. Identical values can stand only once. “Also recorded” adds a separate entry of the source.
How the values were obtained:
[1] = tested on: intestinal loops injected with cholera toxin (CTX); parameters: species or system mice (CD1 strain); details: mouse, in vivo
[2] = tested on: calcium-activated chloride channels (CaCC); assay: Whole cell patch clamp recording of CaCC-mediated Cl- currents in JME/CF15 cells; format: cell-based
Description: Effect on calcium-activated chloride channels (CaCC) was investigated in JME/CF15 cells (see Jefferson et al. “Expression of normal and cystic fibrosis phenotypes by continuous airway epithelial cell lines” Am J. Physiol. (1990) December; 259 (6 Pt 1): L496-505). […] Test compound was Compound 10 ('915/2 in FIGS. 1 and 2) and positive control for CaCC was flufenamic acid (FFA).
JME/CF15 cells were prepared for whole cell patch clamp recordings following standard protocols (as described in Fischer et al. “Basolateral Cl channels in primary airway epithelial cultures” Am J Physiol Lung Cell Mol Physiol. (2007) 292:L1432-L1443, which is incorporated herein by reference in its entirety) while incubated in a bath solution as follows (mM): 140 HCl, 158 N-methyl-D-glucamine (NMDG), 2 CaCl2, 1 MgCl2, 12.5 Hepes, 10 glucose, pH 7.4. To selectively activate calcium-activated chloride channels (CaCC), the pipette solution consisted of (in mM) HCl, 160 N-methyl-D-glucamine (NMDG), 1 MgCl2, 5 Hepes, 1 glucose, 5 MgATP, pH 7.4.
(§1) Conventional whole cell patch clamp recordings were made. Effects of compounds were tested in 2 runs at 1 and 10 μM, respectively, on CaCC. To activate CaCC mediated Cl^− conductances, the pipette solution contained 500 nM CaCl2 without EGTA (in order to allow for agonist induced regulation of CaCC) or a mixture of 1.8 mM CaCl2 and 2 mM EGTA resulting in a free concentration of calcium of 500 nM to maintain a stable intracellular calcium concentration.
(§2) CaCC-mediated Cl^− currents were measured with a pipette solution that contained ˜500 nM free Ca to activate CaCC. […] This is likely a Ca-activated K^+ conductance because i) it generates a large outward current (which rules out a Cl^− conductance), and ii) it is transient (likely because intracellular K^+ is exhausted).

[3] = tested on: Ca-activated K+ conductance; assay: Whole cell patch clamp in JME/CF15 cells: additional (K+) conductance; format: cell-based
Description: as §1, §2
The experimental conditions were not set up to measure a K^+ conductance, i.e., there is no K^+ in the employed solutions, and the measured currents are dependent on the residual K^+ found in cells. […] In an epithelial setting, concurrent block of CaCC and a K^+ conductance may result in weaker blocker efficiency or even in stimulation of secretion.

Structure (SMILES) | % Inhibition [1] | Inhibition of CTX-induced fluid secretion (statistical significance) [1] | Block of CaCC-mediated Cl- currents ([2]; intracellular calcium stably buffered (with EGTA), ~500 nM free Ca, compound added to bath, runs at 1 and 10 μM, FIG. 1) | Block of CaCC-mediated (remaining) chloride current ([2]; intracellular calcium unbuffered (low EGTA), ~500 nM free Ca, 10 μM, FIG. 2) | Activation of a K+ conductance ([3]; Ca-buffered solutions) | Activation of an additional conductance (likely Ca-activated K+ conductance) ([3]; intracellular calcium unbuffered (low EGTA), 10 μM, FIG. 2) | Mean net fluid secretion (loop weight/loop length) [1] | Block of remaining chloride current after compound 10 ([2]; intracellular calcium unbuffered, 100 μM FFA added after compound 10, FIG. 2)
O=C(NCc1ccc(Oc2ccccc2)cc1)c1nc(-c2cc(Br)c(O)c(Br)c2)no1 [BF000710032, 3-(3,5-dibromo-4-hydroxyphenyl)-N-(4-phenoxybenzyl)-1,2,4-oxadiazole-5-carboxamide, reference compound] | 62.69%^ψ | statistically significant inhibition |  |  |  |  |  | 
CN(Cc1ccc(Cl)c(Cl)c1)C(=O)c1nnc(-c2cccc(NS(=O)(=O)C(F)(F)F)c2)o1 [Compound 10, N-(3,4-dichlorobenzyl)-N-methyl-5-(3-(trifluoromethylsulfonamido)phenyl)-1,3,4-oxadiazole-2-carboxamide] |  | statistically significant inhibition | blocking; also recorded: blocked currents | blocking; also recorded: eventually well blocked | not in Ca-buffered | transiently activated an additional conductance; also recorded: activation of a Ca-activated K^+ conductance | 0.04996 g/cm and 0.04015 g/cm and 0.07645 g/cm | 
O=C(O)c1ccccc1Nc1cccc(C(F)(F)F)c1 [FFA, flufenamic acid, reference compound] |  |  |  |  |  |  |  | blocks only slightly more

Source: patent publication US20110288103A1, “COMPOUNDS, COMPOSITIONS, AND METHODS COMPRISING 1,3,4-OXADIAZOLE DERIVATIVES” (Institute for OneWorld Health, priority 2010, published 2011)
